Experimental data published in patent US8993619B2, “Cyclic bridgehead ether DGAT1 inhibitors” (Novartis AG, priority 2012, dated 2015).
Values belong to the molecule of their own block, whether it stands above or below them.

Key:
[1] = biological target: T1, DGAT1 in C2C12 cells (Mus musculus, UniProt Q9Z2A7); experiment: Cellular assay to measure activity of DGAT1 inhibitors in mammalian cells (C2C12); assay type: cell-based; settings: C2C12 mouse skeletal muscle cells, 250 μM oleate, 2 h, LC/MS readout
T1 construct: endogenous in cells; host or cells: C2C12 mouse skeletal muscle cells
T1 sequence (Q9Z2A7 1-498): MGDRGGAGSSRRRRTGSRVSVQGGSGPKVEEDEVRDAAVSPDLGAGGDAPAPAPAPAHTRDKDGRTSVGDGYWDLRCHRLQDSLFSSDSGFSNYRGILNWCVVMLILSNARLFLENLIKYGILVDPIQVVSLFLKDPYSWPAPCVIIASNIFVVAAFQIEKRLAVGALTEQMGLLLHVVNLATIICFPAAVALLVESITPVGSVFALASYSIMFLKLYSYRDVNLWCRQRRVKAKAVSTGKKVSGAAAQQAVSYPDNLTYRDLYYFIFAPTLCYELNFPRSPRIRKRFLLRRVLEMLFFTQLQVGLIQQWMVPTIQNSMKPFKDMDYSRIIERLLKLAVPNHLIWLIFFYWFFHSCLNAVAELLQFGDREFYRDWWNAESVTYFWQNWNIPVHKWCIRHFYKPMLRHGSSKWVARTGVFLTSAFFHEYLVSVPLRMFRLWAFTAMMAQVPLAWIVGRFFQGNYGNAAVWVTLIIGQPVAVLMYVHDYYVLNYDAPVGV
Experimental: C2C12 cells are an immortal mouse skeletal muscle cell line showing an 8-fold enrichment form DGAT1 versus DGAT2. C2C12 cells were routinely cultured in 150 cm2 flasks with DMEM (25 mM glucose) containing 10% FBS, 4 m M L-glutamine, 100 U/ml penicillin and 100 μg/ml streptomycin (30 ml per flask), at 37° C., 5% CO2 and 95% humidity. All studies were performed on cells at passage 10 or less.
C2C12 cells were seeded in 96-well plates in DMEM containing […] glucose and 10% FBS, 18 h (at 37° C.) prior to assay (all wells of the plate are used). […] Compounds were added at 1:3 dilution, 11 points and DMSO control, the starting concentration was usually 40 μM. Each point was dosed in quadruplicate allowing 2 compounds to be dosed per plate. The medium was removed at the end of the incubation and 200 μl/well of 1-butanol added. The 1-butanol contained an internal standard, tripalmitolein (2 μM). The plates were sealed with an adhesive plate sealer and left at room temperature for at least 30 min, then spun down at 209×g for 5 min.
Butanolic extracts were transferred to 384-well LC-MS plates (80 μl/well) and the plate heatsealed with a foil plate sealer. The 384-well plates containing sample were spun down at 209×g for 5 min prior to loading on the LC-MS.
Where indicated, tripalmitolein was used as an internal standard to control for instrument variation. HPLC conditions as above.

[2] = biological target: T2, human (His)6DGAT1 (Homo sapiens, UniProt O75907); experiment: DGAT1 Inhibition Assay; assay type: biochemical; settings: membrane preparation from Sf9 cells overexpressing human (His)6DGAT1; LC/MS/MS readout
T2 construct: made in house; host or cells: Sf9 insect cells (membrane preparation)
T2 sequence (O75907 1-488): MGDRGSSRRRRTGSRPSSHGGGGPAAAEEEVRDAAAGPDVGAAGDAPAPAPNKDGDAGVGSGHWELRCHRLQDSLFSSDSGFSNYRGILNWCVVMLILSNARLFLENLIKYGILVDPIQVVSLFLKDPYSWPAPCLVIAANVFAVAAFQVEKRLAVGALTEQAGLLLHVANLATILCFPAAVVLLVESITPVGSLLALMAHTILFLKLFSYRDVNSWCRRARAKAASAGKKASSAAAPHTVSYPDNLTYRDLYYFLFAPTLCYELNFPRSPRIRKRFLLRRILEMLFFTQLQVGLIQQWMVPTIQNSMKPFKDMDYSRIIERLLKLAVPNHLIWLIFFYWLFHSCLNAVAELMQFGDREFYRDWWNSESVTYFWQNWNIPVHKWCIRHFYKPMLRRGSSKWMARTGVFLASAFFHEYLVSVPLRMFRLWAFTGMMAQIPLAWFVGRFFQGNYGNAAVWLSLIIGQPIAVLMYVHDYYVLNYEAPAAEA
Experimental: The enzyme preparation used in this assay is a membrane preparation from Sf9 cells overexpressing human (His)6DGAT1. During all steps samples were chilled to 4° C. Sf9 cells expressing human (His)6DGAT1 were thawed at room temperature and re-suspended at a 10:1 ratio (mL buffer/g of cells) in 50 mM HEPES, 1× Complete Protease Inhibitor, pH 7.5. The re-suspended pellet was homogenized for 1 min using a Brinkman PT 10/35 homogenizer with a 20 mm generator. Cells were lysed using Avestin Emulsiflex (chilled to 4° C.) at 10000-15000 psi. Lysate was centrifuged at 100,000×g for 1 h at 4° C. Supernatant was removed and pellets were re-suspended in 50 mM HEPES, 1× Complete Protease Inhibitor, pH 7.5 at ⅙ the volume of supernatant. Re-suspended pellets were pooled and homogenized with 10 strokes of a Glas-Col motor driven teflon pestle on setting 70. The protein concentration of the membrane preparation was quantified using BCA protein assay with 1% SDS. The membrane preparation was aliquoted, frozen on dry ice, and stored at −80° C.
For 50 mL, 25 mL of 0.2 M HEPES stock buffer, 0.5 mL of 1 M MgCl2 ([…]), and 24.5 mL of milli-Q H2O are added to the 55 mL Wheaton Potter-Elvehjem homogenizer. Enzyme preparation (0.1 mL) is added to buffer and the mixture is homogenized with 5 strokes on ice using the Glas-Col variable speed homogenizer system on setting 70.
For 50 mL, 0.5 mL 10 mM diolein is added to 9.5 mL of EtOH in a 50 mL Falcon screw cap conical centrifuge tube. Five mL of 10 mM sodium acetate pH 4.5 is added followed by 0.5 mL of 10 mM oleoyl-CoA. Finally, the remaining 4.5 mL of 10 mM sodium acetate pH 4.5 is added followed by 30 mL of milli-Q H20. The solution should be gently agitated by hand to induce mixing. The final concentrations of EtOH and sodium acetate are 20% and 2 mM, respectively.
Dry compounds are dissolved in the appropriate volume of DMSO to a final concentration of 10 mM. […] All dilutions are performed in DMSO in a Greiner 384-well microplate. • 1. 2 μL of compound in DMSO is added to the appropriate wells. […] 25 μL of enzyme mix is added to all wells and plate(s) are incubated for 10 min at RT. • 3. […] Plate(s) are vortexed using Troemner multi-tube vortexer (setting 7 for 10 sec). • 4. 25 μL of substrate mix is added to all wells. Plate(s) are vortexed using Troemner multi-tube vortexer (setting 7 for 10 sec). Plate(s) are incubated for 30 min at RT. • 5. 10 μL of 20% acetic acid quench is added to all wells. Plate(s) are vortexed using Troemner multi-tube vortexer (setting 7 for 10 sec). • 6. 50 μL of 1-butanol w/ glyceryl tripalmitoleate internal standard is added to all wells. • 7. Plate(s) are sealed with super pierce strong plate sealer using the thermo-sealer. • 8. Plate(s) are vortexed using Troemner multi-tube vortexer (setting 10 for 5 min). • 9. Plate(s) are centrifuged at 162×g (1000 rpm for GH-3.8 rotor) for 5 min using Beckman GS-6R tabletop centrifuge.
Where indicated, tripalmitolein was used as an internal standard to control for instrument variation.
Column: Thermo Betabasic 4, 2.1×20 mm
Solvent: 10 mM Ammonium Formate, 0.1% Formic Acid, 2% water, 98% Methanol
Isocratic run 0.5 ml per minute
Data is converted to % inhibition prior to curve fitting using the following equation: […]

Structure (SMILES): CC(C)(C)c1nnc(Nc2ccc(-c3ccc(C45CCC(CC(=O)O)(CC4)O5)cc3)cc2)o1 [Example 22, 2-(4-(4′-((5-(tert-butyl)-1,3,4-oxadiazol-2-yl)amino)-[1,1′-biphenyl]-4-yl)-7-oxabicyclo[2.2.1]heptan-1-yl)acetic acid]
IC50 [1]: 296 nM | IC50 [2]: 1700 nM

Structure (SMILES): O=C(O)CC12CCC(c3ccc(-c4ccc(Nc5nnc(C6CC6)o5)cc4)cc3)(CC1)CO2 [Example 9, 2-(4-(4′-((5-cyclopropyl-1,3,4-oxadiazol-2-yl)amino)-[1,1′-biphenyl]-4-yl)-2-oxabicyclo[2.2.2]octan-1-yl)acetic acid]
IC50 ([1]; heading: DGAT1-C2C12 IC50): 528 nM | IC50 [2]: 230000 nM

Structure (SMILES): O=C(O)CC12CCC(c3ccc(-c4cnc(Nc5nnc(C6CCC6)s5)nc4)cc3)(CC1)CO2 [Example 4, 2-(4-(4-(2-(5-cyclobutyl-1,3,4-thiadiazol-2-ylamino)pyrimidin-5-yl)phenyl)-2-oxabicyclo[2.2.2]octan-1-yl)acetic acid]
IC50 [1]: 2500 nM | IC50 [2]: 14000 nM

Structure (SMILES): O=C(O)CC12CCC(c3ccc(-c4ccc(Nc5nnc(C6CCC6)s5)nc4)cc3)(CC1)CO2 [Example 5, 2-(4-(4-(6-((5-cyclobutyl-1,3,4-thiadiazol-2-yl)amino)pyridin-3-yl)phenyl)-2-oxabicyclo[2.2.2]octan-1-yl)acetic acid]
IC50 [1]: 1240 nM | IC50 [2]: 375 nM

Structure (SMILES): CCc1nc(C)c(C(=O)Nc2ccc(-c3ccc(C45CCC(CC(=O)O)(CC4)CO5)cc3)cc2)o1 [Example 18, 2-(1-(4′-(2-ethyl-4-methyloxazole-5-carboxamido)-[1,1′-biphenyl]-4-yl)-2-oxabicyclo[2.2.2]octan-4-yl)acetic acid]
IC50 [1]: 160 nM | IC50 [2]: 2900 nM

Structure (SMILES): Cc1nc(C(=O)Nc2ccc(-c3ccc(C45CCC(CC(=O)O)(CC4)OC5)cc3)nc2)c(C(F)(F)F)o1 [Example 12, 2-(4-(4-(5-(2-methyl-5-(trifluoromethyl)oxazole-4-carboxamido)pyridin-2-yl)phenyl)-2-oxabicyclo[2.2.2]octan-1-yl)acetic acid]
IC50 [2]: 878 nM

Stronger by IC50 [2], values ahead:

IC50 [1]: 2 nM | IC50 [2]: 12.5 nM
Structure (SMILES): O=C(O)CC12CCC(c3ccc(-c4ccc(Nc5nnc(C6CCC6)s5)cc4)cc3)(CC1)CO2 [Example 6, 2-(4-(4′-(5-cyclobutyl-1,3,4-thiadiazol-2-ylamino)biphenyl-4-yl)-2-oxabicyclo[2.2.2]octan-1-yl)acetic acid]

IC50 [1]: 6 nM | IC50 [2]: 260 nM
Structure (SMILES): O=C(O)CC12CCC(c3ccc(-c4ccc(Nc5nnc(C6CCC6)o5)cc4)cc3)(CC1)OC2 [Example 19, {1-[4′-(5-cyclobutyl-[1,3,4]oxadiazol-2-ylamino)-biphenyl-4-yl]-2-oxa-bicyclo[2.2.2]oct-4-yl}-acetic acid]

IC50 [1]: 56 nM | IC50 [2]: 360 nM
Structure (SMILES): Cc1nc(C(=O)Nc2ccc(-c3ccc(C45CCC(CC(=O)O)(CC4)OC5)cc3)cc2)c(C(F)(F)F)o1 [Example 10, 2-(4-(4′-(2-methyl-5-(trifluoromethyl)oxazole-4-carboxamido)-[1,1′-biphenyl]-4-yl)-2-oxabicyclo[2.2.2]octan-1-yl)acetic acid]

IC50 [1]: 16 nM | IC50 [2]: 120 nM
Structure (SMILES): CC(C)(C)c1nnc(Nc2ccc(-c3ccc(C45CCC(CC(=O)O)(CC4)CO5)cc3)cc2)o1 [Example 20, 2-(1-(4′-((5-(tert-butyl)-1,3,4-oxadiazol-2-yl)amino)-[1,1′-biphenyl]-4-yl)-2-oxabicyclo[2.2.2]octan-4-yl)acetic acid]

IC50 [1]: 267 nM | IC50 [2]: 84 nM
Structure (SMILES): CC(C)(C)c1nnc(Nc2ccc(-c3ccc(C45CCC(CCC(=O)O)(CC4)O5)cc3)cc2)o1 [Example 23, 3-(4-(4′-((5-(tert-butyl)-1,3,4-oxadiazol-2-yl)amino)-[1,1′-biphenyl]-4-yl)-7-oxabicyclo[2.2.1]heptan-1-yl)propanoic acid]

IC50 [1]: 9 nM | IC50 [2]: 99 nM
Structure (SMILES): CC(C)(C)c1nnc(Nc2ccc(-c3ccc(C45CCC(CC(=O)O)(CC4)OC5)cc3)cc2)o1 [Example 8, 2-(4-(4′-(5-tert-butyl-1,3,4-oxadiazol-2-ylamino)biphenyl-4-yl)-2-oxabicyclo[2.2.2]octan-1-yl)acetic acid]

IC50 [1]: 7 nM | IC50 [2]: 44 nM
Structure (SMILES): CC(C)(C)c1cnc(Nc2ccc(-c3ccc(C45CCC(CC(=O)O)(CC4)OC5)cc3)cc2)o1 [Example 15, 2-(4-(4′-((5-(tert-butyl)oxazol-2-yl)amino)-[1,1′-biphenyl]-4-yl)-2-oxabicyclo[2.2.2]octan-1-yl)acetic acid]

IC50 [1]: 944 nM | IC50 [2]: 360 nM
Structure (SMILES): O=C(O)CC12CCC(c3ccc(-c4ccc(Nc5nnc(C6CCC6)o5)cn4)cc3)(CC1)OC2 [Example 21, (1-{4-[5-(5-cyclobutyl-[1,3,4]oxadiazol-2-ylamino)-pyridin-2-yl]-phenyl}-2-oxa-bicyclo[2.2.2]oct-4-yl)-acetic acid]

IC50 [1]: 31 nM | IC50 [2]: 53 nM
Structure (SMILES): CC(C)(C)Cc1nnc(Nc2ccc(-c3ccc(C45CCC(CC(=O)O)(CC4)OC5)cc3)cc2)o1 [Example 17, 2-(4-(4′-((5-neopentyl-1,3,4-oxadiazol-2-yl)amino)-[1,1′-biphenyl]-4-yl)-2-oxabicyclo[2.2.2]octan-1-yl)acetic acid]
